Source: patent US8268882B2 (priority 2009, dated 2012)
pEC50, pIC50: −log10 of the molar value. Like-named read-outs stand apart in the source and are kept apart here.

How the values were obtained:
[1] = tested on: Human T cell lymphoma (Jurkat) cells
[2] = tested on: IL-2 production in Jurkat cells; assay: cells; format: cell-based, human; conditions: for pIC50: read-out: immunosuppression IL-2 (IC50)
[3] = in vitro; conditions: human

Row | Compound | pEC50 ([1]; read-out: Viability/Cytotoxicity MTT (ED50), Jurkat cells, 24 h culture, test compounds incubated in serum for 24 hrs) | pIC50 ([2]; Jurkat cells stimulated with PMA and PHA, 24 hrs, test compounds incubated in serum for 24 hrs) | cytotoxicity in MTT assay compared with triptolide [1] | cytotoxicity to Jurkat cells [1] | inhibition of IL-2 production [2] | pIC50 ([2]; Homo sapiens, Jurkat, 24 h) | pEC50 [3]
1 | triptolide [PG490, reference compound] | 7.22 | 8.40 | – | – | – | – | –
2 | CC(C)[C@]12O[C@H]1[C@@H]1O[C@]13[C@]1(O[C@H]1C[C@H]1C4=C(CC[C@@]13C)C(=O)OC4)[C@@H]2OC(=O)C(=O)O[C@@H]1[C@@]2(C(C)C)O[C@H]2[C@@H]2O[C@]23[C@]12O[C@H]2C[C@H]1C2=C(CC[C@@]13C)C(=O)OC2 [PG782] | – | – | more potent than triptolide | cytotoxic to Jurkat cells | inhibited IL-2 production | 8.70 | 7.28
3 | CC(C)[C@]1(O)[C@H](Cl)[C@@H]2O[C@]23[C@@]2(OC(=O)O[C@H]12)[C@H](Cl)C[C@H]1C2=C(CC[C@@]13C)C(=O)OC2 [PG757] | – | – | significantly more cytotoxic | cytotoxic to Jurkat cells | inhibited IL-2 production | 8.05 | 7.49
4 | CC(C)[C@]12O[C@H]1[C@@H]1O[C@]13[C@@]1(OC(=O)O[C@H]21)[C@H](Cl)C[C@H]1C2=C(CC[C@@]13C)C(=O)OC2 [PG762] | – | – | comparable potency | cytotoxic to Jurkat cells | inhibited IL-2 production | 8.05 | 7.22
